The values below come from PMC7413254 (Nature Communications, 2020).

Assay [1] deals with T1, PfCRT^3D7 (Plasmodium falciparum, UniProt Q8IBZ9). Put plainly: cell-based. The assay is classed as cell-based. The text has this: (§1) The orientation of PfCRT in the parasite’s DV membrane, and also in the oocyte plasma membrane, is such that its N- and C-termini extend into the cytosol. The oocytes were suspended in a reaction buffer adjusted to pH 5.5 to mimic the pH of the DV lumen[1],[2]. In this scenario, the transport of a substrate via PfCRT from the acidic extracellular solution into the oocyte cytosol[15] is analogous to the parasite’s PfCRT-mediated efflux of a substrate from the acidic DV and into the cytosol. Unless specified otherwise, this is the direction in which substrate transport was measured in the oocyte assays.
T1 sequence (Q8IBZ9 59-398): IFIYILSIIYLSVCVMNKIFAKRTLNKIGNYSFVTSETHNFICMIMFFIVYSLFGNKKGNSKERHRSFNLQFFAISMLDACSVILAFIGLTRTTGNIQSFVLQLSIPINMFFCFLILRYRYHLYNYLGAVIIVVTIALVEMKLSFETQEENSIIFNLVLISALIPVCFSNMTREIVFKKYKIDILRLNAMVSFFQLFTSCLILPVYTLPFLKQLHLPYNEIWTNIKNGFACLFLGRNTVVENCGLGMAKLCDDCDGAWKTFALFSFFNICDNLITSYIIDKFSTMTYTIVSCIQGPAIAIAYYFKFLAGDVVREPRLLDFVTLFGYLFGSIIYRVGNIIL
(§2) Unless specified otherwise, the transport assays were conducted over 1.5 h at 27.5 °C and the reaction buffer was ND96 (96 mM NaCl, 2 mM KCl, 1 mM MgCl2, 1.8 mM CaCl2, 10 mM MES and 10 mM Tris-base) at pH 5.5.
(§3) Ten oocytes were washed twice with the relevant ND96 buffer. […] The assay was terminated by removing the reaction buffer and washing the oocytes with ice-cold ND96 buffer. The oocytes were lysed in 10% (w/v) sodium dodecyl sulfate (SDS) and the radioactivity accumulated within each oocyte was measured with a MicroBeta^2 microplate liquid scintillation analyser (PerkinElmer).
(§4) At least four independent experiments were performed (on different days and using oocytes from different frogs), and within each experiment measurements were made from ten oocytes per treatment.

In assay [2] the test system is non-expressing oocytes. Put plainly: cells. Format: cell-based, Xenopus laevis.
Text: as §1, §2, §3, §4

In assay [3] the test system is non-expressing oocytes. Format: cell-based, Xenopus laevis. Put shortly:
(§5)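 Oocytes (ten per treatment, ≥4 independent frogs/days) were preloaded by injecting VF-6 in 25 nL ND96 at pH 5.0, 5.5, 6.0 or 7.0, or Na^+-free choline buffer, then uptake run 1.5 h, 27.5 °C, ND96 pH 5.5 by default. Internal concentrations assumed ~400 nL oocyte volume.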

For a further assay, the target named is T2, PfNT1 (Plasmodium falciparum, UniProt Q8IDM6).
T2 construct: expressed in transfected cells; host or cells: Xenopus laevis oocytes (stage V-VI), cRNA-injected
T2 sequence (Q8IDM6 whole entry): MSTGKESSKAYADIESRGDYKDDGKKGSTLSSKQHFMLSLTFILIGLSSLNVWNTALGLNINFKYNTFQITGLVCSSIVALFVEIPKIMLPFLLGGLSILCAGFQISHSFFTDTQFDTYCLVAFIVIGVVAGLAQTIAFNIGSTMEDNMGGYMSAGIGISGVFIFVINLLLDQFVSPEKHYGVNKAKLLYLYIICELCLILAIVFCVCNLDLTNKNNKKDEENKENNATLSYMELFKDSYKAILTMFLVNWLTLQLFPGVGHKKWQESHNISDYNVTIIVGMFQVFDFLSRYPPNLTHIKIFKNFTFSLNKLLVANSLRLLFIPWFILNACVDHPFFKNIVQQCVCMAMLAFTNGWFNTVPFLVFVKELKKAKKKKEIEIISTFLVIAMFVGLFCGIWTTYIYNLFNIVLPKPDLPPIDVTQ
Put plainly: cell-based. Format: cell-based. Put shortly:
as §5

Assay [4] has as its target T1, PfCRT^3D7. Put plainly: cell-based. Format: cell-based. The gist of the method:
as §5
This is another data set of the same source.

Values joined by “and” are separate entries in the source; they are usually repeats but may differ in a detail not shown here. Identical values can stand only once.

As for `O=CO` [Formate], at PfCRT^3D7 [1], the “Cis-inhibition data: total [3H]CQ transport, normalised to the oocyte type control” value was 101 ± 7.3 and 99 ± 3.8 and 100 ± 4.4; the “Total [3H]CQ transport, cis-inhibition by solute” value (from here on “Total … cis-inhibition by solute”) was 2.4 ± 0.06 and 3.5 ± 0.07 and 3.3 ± 0.07. Also, in the assay on non-expressing oocytes [2], the “Cis-inhibition data: total [3H]CQ transport, normalised to the oocyte type control” value was 100 ± 3.5 and 100 ± 1.8; the “Total … cis-inhibition by solute” value was 2.8 ± 0.03 and 3.2 ± 0.08 and 2.5 ± 0.04. In the assay on non-expressing oocytes [3], the “Total [3H]CQ transport, trans-stimulation by injected solute” value (from here on “Total … by injected solute”) is 2.5 ± 0.09 and 3.2 ± 0.08; the “Trans-stimulation data: total [3H]CQ transport, normalised to the oocyte type control” value was 101 ± 3.9 and 99 ± 3.5. Besides, at PfNT1, the “Total … by injected solute” value is 3.1 ± 0.08 and 2.3 ± 0.06; the “Trans-stimulation data: total [3H]CQ transport, normalised to the oocyte type control” value is 101 ± 3.6 and 100 ± 24. For the same compound, on PfCRT^3D7 [4], the “PfCRT-mediated [3H]CQ transport, trans-stimulation by injected solute, PfCRT3D7” value (“PfCRT-mediated [3H]CQ transport … PfCRT3D7” below) is 0.8 ± 0.01 and 0.8 ± 0.03; the “Total … by injected solute” value was 3.8 ± 0.01 and 3.8 ± 0.03; the “Trans-stimulation data: PfCRT-mediated [3H]CQ transport” value (“Trans-stimulation data: PfCRT-mediated” below) was 99 ± 3.7 and 99 ± 3.8; the “Trans-stimulation data: total [3H]CQ transport, normalised to the oocyte type control” value is 101 ± 2.9 and 101 ± 2.8.
As to `N[C@@H](CCC(=O)N[C@@H](CS)C(=O)NCC(=O)O)C(=O)O` [Reduced glutathione (GSH)], at PfCRT^3D7 [1], the “Cis-inhibition data: total [3H]CQ transport, normalised to the oocyte type control” value is 100 ± 5.5 and 101 ± 3.7 and 100 ± 4.7; the “Total … cis-inhibition by solute” value was 2.7 ± 0.06 and 3.1 ± 0.08 and 3.3 ± 0.07. Also, in the assay with non-expressing oocytes [2], the “Cis-inhibition data: total [3H]CQ transport, normalised to the oocyte type control” value was 99 ± 4.6 and 99 ± 4.5 and 101 ± 2.2; the “Total … cis-inhibition by solute” value is 2.8 ± 0.2 and 2.6 ± 0.08 and 3.2 ± 0.08. Besides, in the assay with non-expressing oocytes [3], the “Total … by injected solute” value was 2.7 ± 0.05 and 2.9 ± 0.05; the “Trans-stimulation data: total [3H]CQ transport, normalised to the oocyte type control” value is 99 ± 4.9 and 101 ± 4.7. Moreover, on PfNT1, the “Total … by injected solute” value is 3.8 ± 0.07 and 2.7 ± 0.06; the “Trans-stimulation data: total [3H]CQ transport, normalised to the oocyte type control” value was 98 ± 3.8 and 99 ± 4.4. In addition, on PfCRT^3D7 [4], the “PfCRT-mediated [3H]CQ transport … PfCRT3D7” value was 0.2 ± 0.03 and 0.2 ± 0.01; the “Total … by injected solute” value is recorded as 3.2 ± 0.03; the “Trans-stimulation data: PfCRT-mediated” value is 96 ± 3.7 and 98 ± 3.9; the “Trans-stimulation data: total [3H]CQ transport, normalised to the oocyte type control” value was 98 ± 4.3 and 100 ± 3.8.
`O=C(O)CCC(=O)O` [Succinate]: on PfCRT^3D7 [1], the “Cis-inhibition data: total [3H]CQ transport, normalised to the oocyte type control” value was 100 ± 9.7 and 100 ± 3.8 and 99 ± 3.7; the “Total … cis-inhibition by solute” value is 4.2 ± 0.03 and 3.6 ± 0.06 and 3.9 ± 0.1. For the same compound, in the assay on non-expressing oocytes [2], the “Cis-inhibition data: total [3H]CQ transport, normalised to the oocyte type control” value was 101 ± 4.7 and 101 ± 5.3 and 100 ± 5.3; the “Total … cis-inhibition by solute” value was 2.4 ± 0.06 and 2.8 ± 0.03 and 2.2 ± 0.06. Also, in the assay with non-expressing oocytes [3], the “Total … by injected solute” value is 3.1 ± 0.03 and 2.2 ± 0.05; the “Trans-stimulation data: total [3H]CQ transport, normalised to the oocyte type control” value was 100 ± 3.7 and 99 ± 3.3. Moreover, at PfNT1, the “Total … by injected solute” value is 2.6 ± 0.04 and 3.3 ± 0.08; the “Trans-stimulation data: total [3H]CQ transport, normalised to the oocyte type control” value is 101 ± 3.7 and 98 ± 3.0. Further, at PfCRT^3D7 [4], the “PfCRT-mediated [3H]CQ transport … PfCRT3D7” value is 0.8 ± 0.04 and 0.6 ± 0.02; the “Total … by injected solute” value is 3.8 ± 0.1 and 3.6 ± 0.03; the “Trans-stimulation data: PfCRT-mediated” value is 99 ± 3.9 and 96 ± 4.0; the “Trans-stimulation data: total [3H]CQ transport, normalised to the oocyte type control” value is 101 ± 2.7 and 98 ± 3.7.
Regarding `CC[N+](CC)(CC)CC` [Tetraethyl ammonium], at PfCRT^3D7 [1], the “Cis-inhibition data: total [3H]CQ transport in the presence of the solute” value was 98 ± 5.7 and 101 ± 5.2 and 98 ± 5.2; the “Total … cis-inhibition by solute” value was 2.7 ± 0.06 and 3.2 ± 0.08 and 3.7 ± 0.02. In addition, in the assay on non-expressing oocytes [2], the “Cis-inhibition data: total [3H]CQ transport in the presence of the solute” value is 99 ± 4.8 and 101 ± 4.7 and 99 ± 3.6; the “Total … cis-inhibition by solute” value was 2.2 ± 0.03 and 3.3 ± 0.08 and 2.8 ± 0.03. In the assay with non-expressing oocytes [3], the “Total [3H]CQ transport, trans-stimulation by solute” value (“Total … trans-stimulation by solute” below) is 2.5 ± 0.04 and 3.0 ± 0.04; the “Trans-stimulation data: total [3H]CQ transport with the solute injected” value was 99 ± 3.5 and 98 ± 5.7. Also, at PfNT1, the “Total … trans-stimulation by solute” value is 3.2 ± 0.1 and 2.8 ± 0.02; the “Trans-stimulation data: total [3H]CQ transport with the solute injected” value is 99 ± 3.5 and 100 ± 3.6. At PfCRT^3D7 [4], the “PfCRT-mediated [3H]CQ transport … PfCRT3D7” value is 0.6 ± 0.02 and 0.7 ± 0.01; the “Total … trans-stimulation by solute” value was 3.6 ± 0.05 and 3.7 ± 0.05; the “Trans-stimulation data: PfCRT-mediated” value is 97 ± 2.2 and 99 ± 2.6; the “Trans-stimulation data: total [3H]CQ transport with the solute injected” value was 99 ± 0.3 and 101 ± 3.7.
As for `Cc1ncc(C[n+]2csc(CCO)c2C)c(N)n1` [Thiamine (Vitamin B1)], on PfCRT^3D7 [1], the “Cis-inhibition data: total [3H]CQ transport, normalised to the oocyte type control” value is 99 ± 9.3 and 99 ± 3.7 and 99 ± 3.0; the “Total … cis-inhibition by solute” value is 2.8 ± 0.03 and 2.7 ± 0.07 and 2.8 ± 0.05. In addition, in the assay on non-expressing oocytes [2], the “Cis-inhibition data: total [3H]CQ transport, normalised to the oocyte type control” value was 99 ± 5.1 and 98 ± 5.2 and 100 ± 4.6; the “Total … cis-inhibition by solute” value is 2.7 ± 0.05 and 4.2 ± 0.03 and 2.2 ± 0.06. In addition, in the assay with non-expressing oocytes [3], the “Total … by injected solute” value was 2.9 ± 0.04 and 3.9 ± 0.05; the “Trans-stimulation data: total [3H]CQ transport, normalised to the oocyte type control” value is 100 ± 3.7 and 99 ± 4.8. Further, at PfNT1, the “Total … by injected solute” value is 3.7 ± 0.08 and 2.7 ± 0.06; the “Trans-stimulation data: total [3H]CQ transport, normalised to the oocyte type control” value is given as 101 ± 3.9. In addition, at PfCRT^3D7 [4], the “PfCRT-mediated [3H]CQ transport … PfCRT3D7” value was 0.1 ± 0.01; the “Total … by injected solute” value was 3.0 ± 0.05 and 3.0 ± 0.03; the “Trans-stimulation data: PfCRT-mediated” value is 99 ± 2.9 and 98 ± 1.9; the “Trans-stimulation data: total [3H]CQ transport, normalised to the oocyte type control” value is 101 ± 3.5 and 100 ± 3.6.
